This experiment deals with T1, MAP3K3 (MEKK3) (Homo sapiens, UniProt Q99759).
T1 construct: purchased Thermo Fisher Scientific (Life Technologies) SelectScreen
The experiment can be described thus: SelectScreen LanthaScreen. It counts as binding. The note with it: read-out: % displacement. The method in brief:
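SelectScreen broad panel; activity (Z'LYTE, Adapta) plus binding formats. ATP: Km app for CSF1R Z'LYTE; 10 for CAMK1 Adapta. Readout = % per kinase.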

T1 sequence (Q99759 whole entry): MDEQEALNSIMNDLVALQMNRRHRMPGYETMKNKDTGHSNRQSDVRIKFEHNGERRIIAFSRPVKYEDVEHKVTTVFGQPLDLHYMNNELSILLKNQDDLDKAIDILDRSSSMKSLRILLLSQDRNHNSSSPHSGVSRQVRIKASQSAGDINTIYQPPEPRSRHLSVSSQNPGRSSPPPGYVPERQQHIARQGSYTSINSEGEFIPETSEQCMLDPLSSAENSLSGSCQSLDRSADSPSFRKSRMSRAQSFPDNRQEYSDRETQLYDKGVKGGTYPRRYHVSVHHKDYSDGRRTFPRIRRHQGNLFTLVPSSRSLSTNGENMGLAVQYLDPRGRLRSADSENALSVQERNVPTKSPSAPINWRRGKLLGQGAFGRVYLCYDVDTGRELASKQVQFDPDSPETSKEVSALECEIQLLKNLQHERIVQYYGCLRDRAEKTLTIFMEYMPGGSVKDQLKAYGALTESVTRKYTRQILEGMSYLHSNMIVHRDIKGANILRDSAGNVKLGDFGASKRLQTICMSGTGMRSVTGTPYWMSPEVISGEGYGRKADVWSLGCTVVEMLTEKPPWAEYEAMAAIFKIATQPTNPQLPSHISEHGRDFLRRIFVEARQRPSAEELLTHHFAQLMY

With `CN(C(=O)CN1CCOCC1)c1ccc2sc3c(-c4cccc5c(=O)cc(N6CC7CCC(C6)O7)oc45)cccc3c2c1` [NU5455], the inhibition at 1 µM is -1.1%.

The values above are taken from publication PMC6934184, “Selective DNA-PKcs inhibition extends the therapeutic index of localized radiotherapy and chemotherapy” (The Journal of Clinical Investigation, 2019).
